The values that follow come from US9512107B2, “Therapeutically active compositions and their methods of use” (Agios Pharmaceuticals, Inc., priority 2012, dated 2016).

Positions count from the first letter of the chain named.

Test [1] deals with T1, IDH2 R140Q (Homo sapiens, UniProt P48735, R140Q).
T1 sequence (P48735 40-452 R140Q): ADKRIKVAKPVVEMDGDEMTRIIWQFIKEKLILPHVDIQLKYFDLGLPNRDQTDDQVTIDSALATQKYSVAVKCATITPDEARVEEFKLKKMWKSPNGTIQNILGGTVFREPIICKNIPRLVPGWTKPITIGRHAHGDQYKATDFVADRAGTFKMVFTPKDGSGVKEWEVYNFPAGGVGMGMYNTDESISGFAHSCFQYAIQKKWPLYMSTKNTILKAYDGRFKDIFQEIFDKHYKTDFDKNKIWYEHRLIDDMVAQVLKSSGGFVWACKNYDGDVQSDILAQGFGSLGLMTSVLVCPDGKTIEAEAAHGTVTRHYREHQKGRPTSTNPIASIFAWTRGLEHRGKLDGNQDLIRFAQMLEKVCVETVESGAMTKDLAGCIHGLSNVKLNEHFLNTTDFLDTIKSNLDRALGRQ
Kind of test: IDH2 R140Q enzymatic assay (cofactor depletion, similar format). Format: biochemical. The following applies: read-out: Enz R140Q.

In test [2] the test system is U87MG pLVX-IDH2 R140Q-neo cells. Kind of test: U87MG pLVX-IDH2 R140Q-neo cell based assay, 2-HG in media by LC-MS at 48 hours. The following applies: Homo sapiens, U-87 MG. The procedure, abridged: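 2-HG secreted into the medium was measured by LC-MS after 48 h of compound treatment (0.2% DMSO final) of U87MG pLVX-IDH2 R140Q-neo cells in DMEM/10% FBS. The same wells were assayed at 72 h by CellTiter-Glo luminescence for effects on growth.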

Test [3] addresses T2, IDH2 R172K (Homo sapiens, UniProt P48735, R172K).
T2 sequence (P48735 40-452 R172K): T1 sequence (P48735 40-452 R140Q) with Q101R, R133K
Briefly: IDH2 R172K enzymatic assay (NADPH cofactor depletion, diaphorase/resazurin readout). Format: biochemical. The following applies: read-out: Enz R172K. The essentials: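 Cofactor depletion format: enzyme + compound 1 h RT; add substrate mix (50 μM NADPH, 6.3 mM α-KG); react 1 h RT; quench with stop mix (36 μg/ml diaphorase, 60 μM resazurin); read resorufin fluorescence as residual NADPH.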
For orientation: Alamar Blue is a resazurin reagent that responds to reducing activity.

As to `CC(C)Nc1nc(Nc2ccnc(C(F)(F)F)c2)nc(-c2cccc(C(C)(F)F)n2)n1` [Compound 582, 6-[6-(1,1-Difluoro-ethyl)-pyridin-2-yl]-N-isopropyl-N′-(2-trifluoromethyl-pyridin-4-yl)-[1,3,5]triazine-2,4-diamine], the IC50 in test [1] was 100 to 1000 nM; in test [2], < 100 nM; in test [3], < 100 nM.

Take `CC(C)Nc1nc(Nc2cc(F)cc(F)c2)nc(-c2cccc(C(C)(F)F)n2)n1` [Compound 583, 6-(6-(1,1-difluoroethyl)pyridin-2-yl)-N2-(3,5-difluorophenyl)-N4-isopropyl-1,3,5-triazine-2,4-diamine]: the IC50 was 100 to 1000 nM in test [1], < 100 nM in test [2] and < 100 nM in test [3].

On to `CC(F)(F)c1cccc(-c2nc(NCC3CC3)nc(Nc3cc(F)cc(F)c3)n2)n1` [Compound 584, N2-(cyclopropylmethyl)-6-(6-(1,1-difluoroethyl)pyridin-2-yl)-N4-(3,5-difluorophenyl)-1,3,5-triazine-2,4-diamine], for which the IC50 in test [1] is 100 to 1000 nM; in test [2], < 100 nM; in test [3] it was < 100 nM.

For `CC(C)(C)Nc1nc(Nc2cc(F)cc(F)c2)nc(-c2cccc(C(C)(F)F)n2)n1` [Compound 585, N2-(tert-butyl)-6-(6-(1,1-difluoroethyl)pyridin-2-yl)-N4-(3,5-difluorophenyl)-1,3,5-triazine-2,4-diamine], the IC50 in test [1] was 100 to 1000 nM; in test [2] it was < 100 nM; in test [3], < 100 nM.

Turning to `FC(F)(F)c1cc(Nc2nc(NC3CCOCC3)nc(-c3cccc(C(F)(F)F)n3)n2)ccn1` [Compound 587, N2-(tetrahydro-2H-pyran-4-yl)-6-(6-(trifluoromethyl)pyridin-2-yl)-N4-(2-(trifluoromethyl)pyridin-4-yl)-1,3,5-triazine-2,4-diamine], the values for the IC50 in test [1], in test [2] and in test [3] were 100 to 1000 nM, < 100 nM and < 100 nM, respectively.

Turning to `OC1CCCC1Nc1nc(Nc2ccnc(C(F)(F)F)c2)nc(-c2cccc(C(F)(F)F)n2)n1` (stereo not drawn) [Compound 588, 2-((4-(6-(trifluoromethyl)pyridin-2-yl)-6-((2-(trifluoromethyl)pyridin-4-yl)amino)-1,3,5-triazin-2-yl)amino)cyclopentanol], the IC50 in test [1] is 100 to 1000 nM; in test [2] it was < 100 nM; in test [3], 100 to 1000 nM.

Consider `CC(C)(C)Nc1nc(Nc2cc(F)cc(S(C)(=O)=O)c2)nc(-c2cccc(C(F)(F)F)n2)n1` [Compound 592, N-tert-Butyl-N′-(3-fluoro-5-methanesulfonyl-phenyl)-6-(6-trifluoromethyl-pyridin-2-yl)-[1,3,5]triazine-2,4-diamine], for which the IC50 in test [1] is 100 to 1000 nM; in test [2] it was < 100 nM; in test [3], 100 to 1000 nM.

As to `CS(=O)(=O)c1cc(F)cc(Nc2nc(NCC3CC3)nc(-c3cccc(C(F)(F)F)n3)n2)c1` [Compound 593, N-Cyclopropylmethyl-N′-(3-fluoro-5-methanesulfonyl-phenyl)-6-(6-trifluoromethyl-pyridin-2-yl)-[1,3,5]triazine-2,4-diamine], the IC50 in test [1] is 100 to 1000 nM; in test [2], < 100 nM; in test [3] it was < 100 nM.

Turning to `CC(C)(O)CNc1nc(Nc2ccnc(C(F)(F)F)c2)nc(-c2cccc(C(C)(F)F)n2)n1` [Compound 594, 1-((4-(6-(1,1-difluoroethyl)pyridin-2-yl)-6-((2-(trifluoromethyl)pyridin-4-yl)amino)-1,3,5-triazin-2-yl)amino)-2-methylpropan-2-ol], the IC50 was 100 to 1000 nM in test [1], < 100 nM in test [2] and 100 to 1000 nM in test [3].

For `CC(F)(F)c1cccc(-c2nc(NCC3CC3)nc(Nc3ccnc(C(F)(F)F)c3)n2)n1` [Compound 595, N2-(cyclopropylmethyl)-6-(6-(1,1-difluoroethyl)pyridin-2-yl)-N4-(2-(trifluoromethyl)pyridin-4-yl)-1,3,5-triazine-2,4-diamine], the IC50 in test [1] is 100 to 1000 nM; in test [2] it was < 100 nM; in test [3] it was < 100 nM.

For the compound `CC(C)(C)Nc1nc(Nc2ccnc(C(C)(F)F)c2)nc(-c2cccc(C(C)(F)F)n2)n1` [Compound 596, N2-(tert-butyl)-6-(6-(1,1-difluoroethyl)pyridin-2-yl)-N4-(2-(1,1-difluoroethyl)pyridin-4-yl)-1,3,5-triazine-2,4-diamine], the values for the IC50 in test [1], in test [2] and in test [3] were 100 to 1000 nM, < 100 nM and < 100 nM, respectively.

On to `FC(F)(F)c1cc(Nc2nc(NCC3CC3)nc(-c3cccc(C(F)(F)F)n3)n2)ccn1` [Compound 597, N2-(cyclopropylmethyl)-6-(6-(trifluoromethyl)pyridin-2-yl)-N4-(2-(trifluoromethyl)pyridin-4-yl)-1,3,5-triazine-2,4-diamine], for which the IC50 is 100 to 1000 nM in test [1], < 100 nM in test [2] and < 100 nM in test [3].

Consider `Fc1cc(F)cc(Nc2nc(NCC3CC3)nc(-c3cccc(C(F)(F)F)n3)n2)c1` [Compound 598, N2-(cyclopropylmethyl)-N4-(3,5-difluorophenyl)-6-(6-(trifluoromethyl)pyridin-2-yl)-1,3,5-triazine-2,4-diamine], for which the IC50 in test [1] was 100 to 1000 nM; in test [2] it was < 100 nM; in test [3], < 100 nM.

As for `CS(=O)(=O)c1cc(Cl)cc(Nc2nc(NCC3CC3)nc(-c3cccc(C(F)(F)F)n3)n2)c1` [Compound 599, N2-(3-chloro-5-(methylsulfonyl)phenyl)-N4-(cyclopropylmethyl)-6-(6-(trifluoromethyl)pyridin-2-yl)-1,3,5-triazine-2,4-diamine], the IC50 in test [1] is 100 to 1000 nM; in test [2], < 100 nM; in test [3] it was < 100 nM.

Take `CC(C)(C)Nc1nc(Nc2cc(Cl)cc(S(C)(=O)=O)c2)nc(-c2cccc(C(F)(F)F)n2)n1` [Compound 600, N2-(tert-butyl)-N4-(3-chloro-5-(methylsulfonyl)phenyl)-6-(6-(trifluoromethyl)pyridin-2-yl)-1,3,5-triazine-2,4-diamine]: the IC50 in test [1] was 100 to 1000 nM; in test [2], < 100 nM; in test [3], < 100 nM.

On to `CC(C)(C)Nc1nc(Nc2cc(F)cc(F)c2)nc(-c2cccc(C(F)(F)F)n2)n1` [Compound 601, N2-(tert-butyl)-N4-(3,5-difluorophenyl)-6-(6-(trifluoromethyl)pyridin-2-yl)-1,3,5-triazine-2,4-diamine], for which the IC50 is 100 to 1000 nM in test [1], < 100 nM in test [2] and < 100 nM in test [3].

Turning to `CC(C)(C)Nc1nc(Nc2ccnc(C(F)(F)F)c2)nc(-c2cccc(C(F)(F)F)n2)n1` [Compound 602, N2-(tert-butyl)-6-(6-(trifluoromethyl)pyridin-2-yl)-N4-(2-(trifluoromethyl)pyridin-4-yl)-1,3,5-triazine-2,4-diamine], the IC50 in test [1] was 100 to 1000 nM; in test [2], < 100 nM; in test [3] it was < 100 nM.

With `CC(C)Nc1nc(Nc2cc(F)cc(F)c2)nc(-c2cccc(C(F)(F)F)n2)n1` [Compound 603, N2-(3,5-difluorophenyl)-N4-isopropyl-6-(6-(trifluoromethyl)pyridin-2-yl)-1,3,5-triazine-2,4-diamine], the results for the IC50 in test [1], in test [2] and in test [3] were 100 to 1000 nM, < 100 nM and < 100 nM, respectively.

On to `CC(F)(F)c1cc(Nc2nc(NCC3CC3)nc(-c3cccc(C(F)(F)F)n3)n2)ccn1` [Compound 604, N2-(cyclopropylmethyl)-N4-(2-(1,1-difluoroethyl)pyridin-4-yl)-6-(6-(trifluoromethyl)pyridin-2-yl)-1,3,5-triazine-2,4-diamine], for which the IC50 in test [1] is 100 to 1000 nM; in test [2] it was < 100 nM; in test [3], < 100 nM.

For `CC(C)(O)CNc1nc(Nc2ccnc(C(C)(F)F)c2)nc(-c2cccc(C(C)(F)F)n2)n1` [Compound 605, 1-((4-(6-(1,1-difluoroethyl)pyridin-2-yl)-6-((2-(1,1-difluoroethyl)pyridin-4-yl)amino)-1,3,5-triazin-2-yl)amino)-2-methylpropan-2-ol], the figures for the IC50 in test [1], in test [2] and in test [3] were 100 to 1000 nM, < 100 nM and 100 to 1000 nM, respectively.
